# Results taken from the supplement of paper PMC10307832.
# What was measured:
# Assay in all cases: relative viability (nuclei count vs DMSO), 5 days (fraction); higher = more cells survive
# CAL-12T = system: CAL-12T
# Summary of the method: (§1)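 One day after seeding in 1536-well plates, lung cancer cell lines were dosed by pin tool. Dosing was either single-drug or a fixed anchor-drug dose plus five library-drug doses (not always all listed) in √10 steps. After 5 days, nuclei were stained in one fix-and-stain step and counted on 4× images, and relative viability is the nuclei count of treated wells over that of vehicle wells, given as the median of duplicate plates.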
# COR-L 105 = system: COR-L 105
# Summary of the method: as §1
# EKVX = system: EKVX
# Summary of the method: as §1
# EMC-BAC-2 = system: EMC-BAC-2
# Summary of the method: as §1
# H3255 = system: H3255
# Summary of the method: as §1
# LC-2-ad = system: LC-2-ad
# Summary of the method: as §1
# LK-2 = system: LK-2
# Summary of the method: as §1
# LXF-289 = system: LXF-289
# Summary of the method: as §1
# NCI-H1395 = system: NCI-H1395
# Summary of the method: as §1
# NCI-H1437 = system: NCI-H1437
# Summary of the method: as §1
# NCI-H1651 = system: NCI-H1651
# Summary of the method: as §1
# NCI-H1755 = system: NCI-H1755
# Summary of the method: as §1
# NCI-H1793 = system: NCI-H1793
# Summary of the method: as §1
# NCI-H1915 = system: NCI-H1915
# Summary of the method: as §1
# NCI-H1944 = system: NCI-H1944
# Summary of the method: as §1
# NCI-H2085 = system: NCI-H2085
# Summary of the method: as §1
# NCI-H2087 = system: NCI-H2087
# Summary of the method: as §1
# NCI-H2228 = system: NCI-H2228
# Summary of the method: as §1
# NCI-H2347 = system: NCI-H2347
# Summary of the method: as §1
# NCI-H661 = system: NCI-H661
# Summary of the method: as §1
# PC-3 [JPC-3] = system: PC-3 [JPC-3]
# Summary of the method: as §1
# SK-LU-1 = system: SK-LU-1
# Summary of the method: as §1
# SK-MES-1 = system: SK-MES-1
# Summary of the method: as §1
smiles,measurement,setting,value
O=c1[nH]c2ccccc2n1C1CCN(CCCC(c2ccc(F)cc2)c2ccc(F)cc2)CC1 [Pimozide] + Cc1cc(Nc2cc(N3CCN(C)CC3)nc(Sc3ccc(NC(=O)C4CC4)cc3)n2)n[nH]1 [Tozasertib] (partner 0.1 µM),relative viability,CAL-12T; first compound 0.08 µM,0.308
same,relative viability,CAL-12T; first compound 0.253 µM,0.312
same,relative viability,CAL-12T; first compound 0.8 µM,0.308
same,relative viability,CAL-12T; first compound 2.53 µM,0.318
same,relative viability,CAL-12T; first compound 8 µM,0.427
same,relative viability,COR-L 105; first compound 0.253 µM,0.327
same,relative viability,COR-L 105; first compound 0.8 µM,0.367
same,relative viability,COR-L 105; first compound 2.53 µM,0.301
same,relative viability,COR-L 105; first compound 8 µM,0.239
same,relative viability,EKVX; first compound 0.08 µM,0.35
same,relative viability,EKVX; first compound 0.253 µM,0.321
same,relative viability,EKVX; first compound 0.8 µM,0.36
same,relative viability,EKVX; first compound 2.53 µM,0.315
same,relative viability,EKVX; first compound 8 µM,0.388
same,relative viability,EMC-BAC-2; first compound 0.08 µM,0.292
same,relative viability,EMC-BAC-2; first compound 0.253 µM,0.284
same,relative viability,EMC-BAC-2; first compound 0.8 µM,0.272
same,relative viability,EMC-BAC-2; first compound 2.53 µM,0.225
same,relative viability,EMC-BAC-2; first compound 8 µM,0.297
same,relative viability,H3255; first compound 0.253 µM,0.592
same,relative viability,H3255; first compound 0.8 µM,0.47
same,relative viability,H3255; first compound 2.53 µM,0.584
same,relative viability,H3255; first compound 8 µM,0.659
same,relative viability,LC-2-ad; first compound 0.08 µM,0.442
same,relative viability,LC-2-ad; first compound 0.253 µM,0.455
same,relative viability,LC-2-ad; first compound 0.8 µM,0.416
same,relative viability,LC-2-ad; first compound 2.53 µM,0.385
same,relative viability,LC-2-ad; first compound 8 µM,0.35
same,relative viability,LK-2; first compound 0.08 µM,0.173
same,relative viability,LK-2; first compound 0.253 µM,0.178
same,relative viability,LK-2; first compound 2.53 µM,0.167
same,relative viability,LK-2; first compound 8 µM,0.171
same,relative viability,LXF-289; first compound 0.08 µM,0.208
same,relative viability,LXF-289; first compound 0.253 µM,0.167
same,relative viability,LXF-289; first compound 0.8 µM,0.173
same,relative viability,LXF-289; first compound 2.53 µM,0.14
same,relative viability,LXF-289; first compound 8 µM,0.126
same,relative viability,NCI-H1395; first compound 0.08 µM,0.846
same,relative viability,NCI-H1395; first compound 0.253 µM,0.8
same,relative viability,NCI-H1395; first compound 0.8 µM,0.617
same,relative viability,NCI-H1395; first compound 2.53 µM,0.716
same,relative viability,NCI-H1395; first compound 8 µM,0.676
same,relative viability,NCI-H1437; first compound 0.08 µM,0.397
same,relative viability,NCI-H1437; first compound 0.253 µM,0.389
same,relative viability,NCI-H1437; first compound 0.8 µM,0.35
same,relative viability,NCI-H1437; first compound 2.53 µM,0.362
same,relative viability,NCI-H1437; first compound 8 µM,0.341
same,relative viability,NCI-H1651; first compound 0.08 µM,0.618
same,relative viability,NCI-H1651; first compound 0.253 µM,0.697
same,relative viability,NCI-H1651; first compound 0.8 µM,0.655
same,relative viability,NCI-H1651; first compound 2.53 µM,0.611
same,relative viability,NCI-H1651; first compound 8 µM,0.567
same,relative viability,NCI-H1755; first compound 0.08 µM,0.562
same,relative viability,NCI-H1755; first compound 0.253 µM,0.58
same,relative viability,NCI-H1755; first compound 0.8 µM,0.591
same,relative viability,NCI-H1755; first compound 2.53 µM,0.491
same,relative viability,NCI-H1755; first compound 8 µM,0.57
same,relative viability,NCI-H1793; first compound 0.253 µM,0.341
same,relative viability,NCI-H1793; first compound 0.8 µM,0.439
same,relative viability,NCI-H1793; first compound 2.53 µM,0.244
same,relative viability,NCI-H1793; first compound 8 µM,0.278
same,relative viability,NCI-H1915; first compound 0.08 µM,0.445
same,relative viability,NCI-H1915; first compound 0.253 µM,0.383
same,relative viability,NCI-H1915; first compound 0.8 µM,0.332
same,relative viability,NCI-H1915; first compound 2.53 µM,0.321
same,relative viability,NCI-H1915; first compound 8 µM,0.368
same,relative viability,NCI-H1944; first compound 0.08 µM,0.251
same,relative viability,NCI-H1944; first compound 0.253 µM,0.241
same,relative viability,NCI-H1944; first compound 0.8 µM,0.242
same,relative viability,NCI-H1944; first compound 2.53 µM,0.217
same,relative viability,NCI-H1944; first compound 8 µM,0.23
same,relative viability,NCI-H2085; first compound 0.08 µM,0.793
same,relative viability,NCI-H2085; first compound 0.253 µM,0.82
same,relative viability,NCI-H2085; first compound 0.8 µM,0.704
same,relative viability,NCI-H2085; first compound 2.53 µM,0.844
same,relative viability,NCI-H2085; first compound 8 µM,0.736
same,relative viability,NCI-H2087; first compound 0.08 µM,0.262
same,relative viability,NCI-H2087; first compound 0.253 µM,0.232
same,relative viability,NCI-H2087; first compound 2.53 µM,0.233
same,relative viability,NCI-H2087; first compound 8 µM,0.195
same,relative viability,NCI-H2228; first compound 0.08 µM,0.263
same,relative viability,NCI-H2228; first compound 0.253 µM,0.262
same,relative viability,NCI-H2228; first compound 0.8 µM,0.308
same,relative viability,NCI-H2228; first compound 2.53 µM,0.172
same,relative viability,NCI-H2228; first compound 8 µM,0.148
same,relative viability,NCI-H2347; first compound 0.253 µM,0.582
same,relative viability,NCI-H2347; first compound 0.8 µM,0.531
same,relative viability,NCI-H2347; first compound 2.53 µM,0.563
same,relative viability,NCI-H2347; first compound 8 µM,0.578
same,relative viability,NCI-H661; first compound 0.08 µM,0.354
same,relative viability,NCI-H661; first compound 0.253 µM,0.376
same,relative viability,NCI-H661; first compound 0.8 µM,0.339
same,relative viability,NCI-H661; first compound 2.53 µM,0.35
same,relative viability,NCI-H661; first compound 8 µM,0.316
same,relative viability,PC-3 [JPC-3]; first compound 0.08 µM,0.557
same,relative viability,PC-3 [JPC-3]; first compound 0.253 µM,0.875
same,relative viability,PC-3 [JPC-3]; first compound 0.8 µM,0.754
same,relative viability,PC-3 [JPC-3]; first compound 2.53 µM,0.771
same,relative viability,PC-3 [JPC-3]; first compound 8 µM,0.788
same,relative viability,SK-LU-1; first compound 0.08 µM,0.326
same,relative viability,SK-LU-1; first compound 0.253 µM,0.323
same,relative viability,SK-LU-1; first compound 0.8 µM,0.328
same,relative viability,SK-LU-1; first compound 2.53 µM,0.29
same,relative viability,SK-LU-1; first compound 8 µM,0.299
same,relative viability,SK-MES-1; first compound 0.08 µM,0.821
same,relative viability,SK-MES-1; first compound 0.253 µM,0.822
same,relative viability,SK-MES-1; first compound 0.8 µM,0.873
same,relative viability,SK-MES-1; first compound 2.53 µM,0.824
same,relative viability,SK-MES-1; first compound 8 µM,0.815
